Like-named read-outs stand apart in the source and are kept apart here.
Key:
PrtP [1] = test: culture of Lactococcus lactis subsp. lactis BGMN1-501 in chemically defined growth medium (CDM) with addition of 0.5% casitone; cell-free supernatant; conditions: Lactococcus lactis subsp. lactis BGMN1-501, 30°C, up to 16 h
PrtP [2] = test: proteinase extract of BGMN1-501 cells in 0.1 mol/L sodium phosphate buffer (NaPi, pH 7); conditions: Lactococcus lactis subsp. lactis BGMN1-501, up to 20 h
BGMN1-596 = test: Glucose-uptake inhibition assay (growth of BGMN1-596 in GM17); type: cell-based, Lactococcus lactis subsp. lactis; conditions: chemically synthetized LcnB^∗, 0–1,000 μg/mL (highest concentration), BGMN1-596 5% inoculum in GM17, OD 600 nm over 6 h, triplicate
Experimental: To test whether truncated peptide can interfere with glucose import, growth of BGMN1-596 in GM17 with added LcnB^∗ was monitored. Fresh overnight culture, grown in GM17, was inoculated at 5% to fresh media, and saturated with increased concentrations (0–1,000 μg/mL) of chemically synthetized LcnB^∗. As a control, the same inoculum was made in media without glucose. Bacterial growth was monitored in microtitar plates by OD measurement at 600 nm at different time points for 6h. The assay was done in triplicate.

[3] = system: Lactococcus lactis subsp. lactis BGMN1-596; test: Spot-on-lawn bacteriocin activity assay; type: cell-based; conditions: sensitive strain BGMN1-596, 30°C overnight
Experimental: The activity of HPLC-obtained fractions and of chemically synthesized bacteriocin was evaluated by spot-on-lawn assays. Soft GM17 agar (0.75%, w/v) containing sensitive strain was overlaid onto thin GM17 agar plates. After soft agar solidified, 10 μL of sample was spotted and plates were incubated at 30°C overnight. Clear zones of growth inhibition in the spots were used as positive signals. Lactococcus lactis subsp. lactis BGMN1-596 was used in all tests as sensitive strain.

proteinase PrtP [4] = type: in vitro ADME, Lactococcus lactis subsp. lactis BGMN1-501
Experimental: Bacteriocin activity of BGMN1-501, as well as of recombinantly produced bacteriocin was evaluated by an agar-well diffusion test ([Lozo et al., 2004]). The activity of HPLC-obtained fractions and of chemically synthesized bacteriocin was evaluated by spot-on-lawn assays. Soft GM17 agar (0.75%, w/v) containing sensitive strain was overlaid onto thin GM17 agar plates. After soft agar solidified, 10 μL of sample was spotted and plates were incubated at 30°C overnight. Clear zones of growth inhibition in the spots were used as positive signals. Lactococcus lactis subsp. lactis BGMN1-596 was used in all tests as sensitive strain. Proteinase extract was prepared as following: BGMN1-501 was grown on milk citrate agar plates, collected and re-suspended in 0.1 mol/L sodium phosphate buffer (NaPi, pH 7), incubated at room temperature for 30 min, pelleted by centrifugation and supernatants were collected prior to reactions. In vitro testing of effect of proteinase extract on bacteriocin activity was done as previously described ([Vukotic et al., 2015]), except that recombinant bacteriocins were used as substrates in the reactions.

[5] = system: LcnB receptor on sensitive BGMN1-596 cells (man-PTS); test: Bacteriocin competition assay; type: cell-based, Lactococcus lactis subsp. lactis; conditions: 10 μL of 62.5–1,000 μg/mL LcnB^∗ adsorbed 30 min at room temperature, then 50 μL BGMN1-501 culture, overnight 30°C
Experimental: The possibility of truncated peptide LcnB^∗ to compete with wild type LcnB for binding to its receptor molecule was tested in bacteriocin competition assay. Bacteriocin assay was prepared, as explained above. Before addition of bacteriocin producer, 10 μL of increasing concentrations (62.5–1,000 μg/mL) of LcnB^∗ was added to the wells made in soft agar and left for 30 min at room temperature to be completely adsorbed. After that, 50 μL of fresh BGMN1-501 culture was added to the wells, and incubated overnight at 30°C to produce growth inhibition zones.

proteinase PrtP [6] = type: in vitro ADME, Lactococcus lactis subsp. lactis BGMN1-501; remark: listed apart in the source
Experimental: For the purification and mass spectrometric analysis of the bacteriocin in Lactococcus lactis subsp. lactis BGMN1-501, the strain was grown at 30°C for 16 h in 500 mL of chemically defined growth medium (CDM)with addition of 0.5% casitone (Difco Laboratories, Becton Dickinson and Company, Franklin Lakes, NJ, United States). The bacteriocin was purified following the protocol of [Mirkovic et al. (2016)]. Briefly, the cells were removed by centrifugation (4,500 × g for 30 min at 4°C), while the supernatant was saturated up to 40% with ammonium sulfate, and precipitated with stirring for 2 h at 4°C. The precipitate was collected by centrifugation (10,000 × g for 30 min at 4°C) and then dissolved in 5 mL of Milli-Q water containing 0.1% trifluoroacetic acid. The bacteriocin was further purified using reverse-phase high-performance liquid chromatography (HPLC). […] The chromatography was monitored by measuring absorbance at 215 nm. […] Both recombinant peptides and the reaction mixtures of LcnB and PrtP were analyzed using the same reverse-phase chromatography as used for bacteriocin purification (see Section “Bacteriocin LcnB Purification From Lactococcus lactis subsp. lactis BGMN1-501”).

SLQYVMSAGPYTWYKDTRTGKTICKQTIDTASYTFGVMAEGWGKTFH
cleaved bond (PrtP [1]): methionine6-serine7 | cleaved bond (PrtP [2]): methionine6-serine7, major, 3 h

SLQYVMSAGPYTWYKDTRTGKTICKQTIDTASYTFGVMAEGWGKTFH [LcnB, bacteriocin of Lactococcus lactis subsp. lactis BGMN1-501, mature peptide, produced recombinantly in E. coli ER2523]
effect on bacterial growth (interference with glucose import) (BGMN1-596): did not alter bacterial growth | antimicrobial activity (growth inhibition zone) ([3]; chemically synthesized peptide (Biomatik), 10 μL spotted, up to 1 mg/mL): inactive | antimicrobial activity (growth inhibition zone) ([3]; recombinant peptide (pMAL system, E. coli ER2523), 50–500 μg/mL): strong antimicrobial activity | bacteriocin activity after incubation with PrtP extract (proteinase PrtP [4]): no activity could be detected | bacteriocin activity after incubation with PrtP extract (proteinase PrtP [4]; pH 7): reduced the bacteriocin activity | effect of pretreatment on bacteriocin activity of wild type LcnB (competition for the receptor) [5]: did not influence the latter bacteriocin activity of wild type molecule | PrtP cleavage site in the peptide (proteinase PrtP [6]): between sixth and seventh amino acid | amount of peptide left after PrtP hydrolysis (proteinase PrtP [6]): drastically reduced

Reference: publication PMC6491934 (Frontiers in Microbiology, 2019)
